Laboratory results taken from patent US10202411B2, “3′-substituted methyl or alkynyl nucleosides nucleotides for the treatment of HCV” (priority 2014, dated 2019).
Where two headings read alike, the source gives them in different places.

Experiments:
in vitro = details: human
HCV genotype 1b replicon = test: HCV replicon assay (Zluc luciferase reporter); assay type: cell-based
Protocol: Huh-7-derived cell line (Zluc) that harbors an HCV genotype 1b replicon and a luciferase reporter gene was grown in Dulbecco's Modified Eagle Medium (DMEM) supplemented with 10% fetal bovine serum, 2 mM GlutaMAX, 1% MEM nonessential amino acids, 100 IU/mL penicillin, 100 μg/mL streptomycin, and 0.5 mg/mL Geneticin® (G418). For dose response testing the cells were seeded in 96-well plates at 7.5×10^3 cells per well in a volume of 50 μL, and incubated at 37° C./5% CO2. Drug solutions were made up freshly in Huh-7 media as 2× stocks. Ten additional 5-fold dilutions were prepared from these stocks in DMEM without G418. At least three hours after Zluc cells were seeded, drug treatment was initiated by adding 50 μL of drug dilutions to the plates in duplicate. Final concentrations of drug ranged from 100 μM to 0.0000512 μM. Cells were then incubated at 37° C./5% CO2. Alternatively, compounds were tested at two concentrations (1 μM and 10 μM). […] After 72 hours of incubation, the inhibition of HCV replication was measured by quantification of photons emitted after mono-oxygenation of 5′-fluoroluciferin to oxyfluoroluciferin by firefly luciferase. For this, media was removed from the plates via gentle tapping. Fifty microliters of ONE-glo luciferase assay reagent was added to each well. The plates were shaken gently for 3 min at room temperature and luminescence was measured on a Victor^3 V 1420 multilabel counter (Perkin Elmer) with a 1 second read time using a 700 nm cut-off filter. The EC50 values were calculated from dose response curves from the resulting best-fit equations determined by Microsoft Excel and XLfit 4.1 software. When screening at two fixed concentrations, the results were expressed as % inhibition at 1 μM and 10 μM.

Zluc cells = test: Cytotoxicity evaluation, CellTiter-Blue Cell Viability Assay; details: read-out: HCV Replicon CC50; Zluc cells, CellTiter-Blue cell viability
[1] = Hepatitis C virus; Huh-7-derived Zluc cells, genotype 1b replicon, luciferase, 72 hours; read-out: HCV Replicon EC50
[2] = Huh-7-derived Zluc cells, genotype 1b replicon, luciferase, 72 hours; read-out: HCV Replicon EC50

| SMILES | CC50 (in vitro) | EC50 (HCV genotype 1b replicon; [1]) | EC50 (HCV genotype 1b replicon; [2]) | CC50 (Zluc cells) | EC50 (HCV genotype 1b replicon; read-out: HCV Replicon EC50; Huh-7-derived Zluc cells, genotype 1b replicon, luciferase, 72 hours) |
| --- | --- | --- | --- | --- | --- |
| CC(C)(CO)C(=O)SCCO[PH](=O)OC[C@H]1O[C@@H](n2ccc(=O)[nH]c2=O)[C@H](O)[C@@H]1CO (mixture of isomers) [Compound 107 (Mixture of diastereomers)] | > 50 µM | > 10 µM | – | – | – |
| CC(C)(CO)C(=O)SCCOP1(=O)OC[C@H]2[C@@H](O)[C@H](n3ccc(=O)[nH]c3=O)O[C@@H]2CO1 (mixture of isomers) [Compound 109 (Mixture of diastereomers)] | > 50 µM | > 10 µM | – | – | – |
| CC(C)OC(=O)CCCOP1(=O)OC[C@H]2[C@@H](O)[C@H](n3ccc(=O)[nH]c3=O)O[C@@H]2CO1 (mixture of isomers) [Compound 112 (Mixture of diastereomers)] | > 50 µM | > 10 µM | – | – | – |
| O=c1ccn([C@@H]2O[C@@H]3COP(=O)(OCc4ccccc4)OC[C@H]3[C@H]2O)c(=O)[nH]1 (mixture of isomers) [Compound 113 (Mixture of diastereomers)] | > 50 µM | > 10 µM | – | – | – |
| O=c1ccn([C@@H]2O[C@H](CO[PH](=O)OCc3ccccc3)[C@@H](CO)[C@H]2O)c(=O)[nH]1 (mixture of isomers) [Compound 114 (Mixture of diastereomers)] | > 50 µM | > 10 µM | – | – | – |
| CCOC(=O)OC(C)OP(=O)(N[C@H](C(=O)OC)C(C)C)OC[C@H]1O[C@@H](n2cnc3c(OCC)nc(N)nc32)[C@H](O)[C@@H]1CF (mixture of isomers) [Compound 128a Mixture of diastereomers] | > 50 µM | > 10 µM | – | – | – |
| CC(C)OC(=O)[C@H](C)NP(=O)(OCCSC(=O)C(C)(C)C)OC[C@H]1O[C@@H](n2ccc(N)nc2=O)[C@H](O)[C@@H]1CO (single isomer, unassigned) [Compound 106b (Mixture of diastereomers)] | – | – | > 10 µM | > 50 µM | – |
| CC(C)OP1(=O)OC[C@H]2[C@@H](O)[C@H](n3ccc(=O)[nH]c3=O)O[C@@H]2CO1 (single isomer, unassigned) [Compound 108 (Diastereomer 1)] | > 50 µM | > 10 µM | – | – | – |
| CC(C)OP1(=O)OC[C@H]2[C@@H](O)[C@H](n3ccc(=O)[nH]c3=O)O[C@@H]2CO1 (single isomer, unassigned) [Compound 108 (Diastereomer 2)] | – | – | > 10 µM | > 50 µM | – |
| CC(C)(CO)C(=O)SCCOP1(=O)OC[C@H]2[C@@H](O)[C@H](n3ccc(=O)[nH]c3=O)O[C@@H]2CO1 (single isomer, unassigned) [Compound 109 (Diastereomer 1)] | > 50 µM | > 10 µM | – | – | – |
| CC(C)(CO)C(=O)SCCOP1(=O)OC[C@H]2[C@@H](O)[C@H](n3ccc(=O)[nH]c3=O)O[C@@H]2CO1 (single isomer, unassigned) [Compound 109 (Diastereomer 2)] | – | – | > 10 µM | – | – |
| CC(C)OC(=O)[C@@H](C)NP1(=O)OC[C@H]2[C@@H](O)[C@H](n3ccc(=O)[nH]c3=O)O[C@@H]2CO1 (single isomer, unassigned) [Compound 110a (Diastereomer 1)] | > 50 µM | > 10 µM | – | – | – |
| CC(C)OC(=O)[C@@H](C)NP1(=O)OC[C@H]2[C@@H](O)[C@H](n3ccc(=O)[nH]c3=O)O[C@@H]2CO1 (single isomer, unassigned) [Compound 110a (Diastereomer 2)] | – | – | > 10 µM | > 50 µM | – |
| CC(C)OC(=O)CCCOP1(=O)OC[C@H]2[C@@H](O)[C@H](n3ccc(=O)[nH]c3=O)O[C@@H]2CO1 (single isomer, unassigned) [Compound 112 (Diastereomer 1)] | > 50 µM | > 10 µM | – | – | – |
| CC(C)OC(=O)CCCOP1(=O)OC[C@H]2[C@@H](O)[C@H](n3ccc(=O)[nH]c3=O)O[C@@H]2CO1 (single isomer, unassigned) [Compound 112 (Diastereomer 2)] | – | – | > 10 µM | – | – |
| O=c1ccn([C@@H]2O[C@@H]3COP(=O)(OCc4ccccc4)OC[C@H]3[C@H]2O)c(=O)[nH]1 (single isomer, unassigned) [Compound 113 (Diastereomer 1)] | > 50 µM | > 10 µM | – | – | – |
| C[C@@H](NP1(=O)OC[C@H]2[C@@H](O)[C@H](n3ccc(=O)[nH]c3=O)O[C@@H]2CO1)C(=O)OCc1ccccc1 (single isomer, unassigned) [Compound 120a (Diastereomer 1)] | > 50 µM | > 10 µM | – | – | – |
| C[C@@H](NP1(=O)OC[C@H]2[C@@H](O)[C@H](n3ccc(=O)[nH]c3=O)O[C@@H]2CO1)C(=O)OCc1ccccc1 (single isomer, unassigned) [Compound 120a (Diastereomer 2)] | – | – | > 10 µM | > 50 µM | – |
| CC(C)OC(=O)[C@@H](C)NP(=S)(OC[C@H]1O[C@@H](n2ccc(=O)[nH]c2=O)[C@H](O)[C@@H]1CO)Oc1ccccc1 (single isomer, unassigned) [Compound 122a Diastereomer 2] | – | – | – | > 50 µM | > 10 µM |
| C[C@@H](NP(=O)(OC[C@H]1O[C@@H](n2ccc(=O)[nH]c2=O)[C@H](O)[C@@H]1CO)Oc1ccccc1)C(=O)OCc1ccccc1 (single isomer, unassigned) [Compound 123a Diastereomer 1] | > 50 µM | > 10 µM | – | – | – |

| SMILES | CC50 (in vitro) | EC50 (HCV genotype 1b replicon; [1]) | EC50 (HCV genotype 1b replicon; [2]) | CC50 (Zluc cells) | EC50 (HCV genotype 1b replicon; read-out: HCV Replicon EC50; Huh-7-derived Zluc cells, genotype 1b replicon, luciferase, 72 hours) |
| --- | --- | --- | --- | --- | --- |
| C[C@@H](NP(=O)(OC[C@H]1O[C@@H](n2ccc(=O)[nH]c2=O)[C@H](O)[C@@H]1CO)Oc1ccccc1)C(=O)OCc1ccccc1 (single isomer, unassigned) [Compound 123a Diastereomer 2] | – | – | > 10 µM | > 50 µM | – |
| C[C@@H](NP(=O)(OC[C@H]1O[C@@H](n2cnc3c(=O)[nH]c(N)nc32)[C@H](O)[C@@H]1CF)Oc1ccccc1)C(=O)OC1CCCC1 (single isomer, unassigned) [Compound 124a Diastereomer 1] | > 50 µM | > 10 µM | – | – | – |
| CC(O)[C@H]1[C@@H](O)[C@H](n2ccc(=O)[nH]c2=O)O[C@@H]1CO (single isomer, unassigned) [Compound 211 (Single Isomer)] | > 50 µM | > 10 µM | – | – | – |
| CC(C)(C)C(=O)SCCOP(=O)(OCCSC(=O)C(C)(C)C)OC[C@H]1O[C@@H](n2cnc3c(=O)[nH]c(N)nc32)[C@H](O)[C@@H]1CO [Compound 101] | > 50 µM | > 10 µM | – | – | – |
| CC(C)OC(=O)CCCOP(=O)(O)OC[C@H]1O[C@@H](n2ccc(=O)[nH]c2=O)[C@H](O)[C@@H]1CO [Compound 115] | > 50 µM | > 10 µM | – | – | – |
| O=c1ccn([C@@H]2O[C@@H]3COP(=O)(O)OC[C@H]3[C@H]2O)c(=O)[nH]1 [Compound 118] | > 50 µM | > 10 µM | – | – | – |
| CCOC(=O)[C@H](CC(C)C)NP(=O)(N[C@@H](CC(C)C)C(=O)OCC)OC[C@H]1O[C@@H](n2cnc3c(OCC)nc(N)nc32)[C@H](O)[C@@H]1CF [Compound 129a] | > 50 µM | > 10 µM | – | – | – |
| O=c1ccn([C@@H]2O[C@H](CO)[C@@H](C(F)F)[C@H]2O)c(=O)[nH]1 [Compound 201] | > 50 µM | > 10 µM | – | – | – |
| O=c1ccn([C@@H]2O[C@H](CO)[C@@H](CF)[C@H]2O)c(=O)[nH]1 [Compound 202] | > 50 µM | > 10 µM | – | – | – |
| Nc1ccn([C@@H]2O[C@H](CO)[C@@H](C(F)F)[C@H]2O)c(=O)n1 [Compound 203] | > 50 µM | > 10 µM | – | – | – |
| Nc1ccn([C@@H]2O[C@H](CO)[C@@H](CF)[C@H]2O)c(=O)n1 [Compound 204] | > 50 µM | > 10 µM | – | – | – |
| O=c1ccn([C@@H]2O[C@H](CO)[C@@H](CO)[C@H]2O)c(=O)[nH]1 [Compound 205] | > 50 µM | > 10 µM | – | – | – |
| Nc1ccn([C@@H]2O[C@H](CO)[C@@H](CO)[C@H]2O)c(=O)n1 [Compound 206] | > 50 µM | > 10 µM | – | – | – |
| Nc1ncnc2c1ncn2[C@@H]1O[C@H](CO)[C@@H](CO)[C@H]1O [Compound 207] | > 50 µM | > 10 µM | – | – | – |
| CC(=O)OC[C@H]1[C@@H](OC(C)=O)[C@H](n2ccc(=O)[nH]c2=O)O[C@@H]1CO [Compound 212] | > 50 µM | > 10 µM | – | – | – |
| CC(=O)OC[C@H]1[C@@H](OC(C)=O)[C@H](n2ccc(N)nc2=O)O[C@@H]1CO [Compound 213] | > 50 µM | > 10 µM | – | – | – |
| Nc1ncnc2c1ncn2[C@@H]1O[C@H](CO)[C@@H](CF)[C@H]1O [Compound 225] | > 50 µM | > 10 µM | – | – | – |
| Nc1nc2c(ncn2[C@@H]2O[C@H](CO)[C@@H](CF)[C@H]2O)c(=O)[nH]1 [Compound 226] | > 50 µM | > 10 µM | – | – | – |
| CCOc1nc(N)nc2c1ncn2[C@@H]1O[C@H](CO)[C@@H](CO)[C@H]1O [Compound 227] | > 50 µM | > 10 µM | – | – | – |
